Key:
Eimeria tenella [1] = assay: Antiparasitic activity against Eimeria tenella in chicken at 25 ppm in feed assessed as percent reduction in oocyst; assay type: functional; parameters: scale not given: the % may be the effect or the level left
Eimeria acervulina [2] = assay: Antiparasitic activity against Eimeria acervulina in chicken at 25 ppm in feed assessed as percent reduction in oocyst; assay type: functional; parameters: scale not given: the % may be the effect or the level left
[3] = target: cGMP-dependent protein kinase (Eimeria tenella, UniProt Q8MMZ8); assay: Inhibition of Eimeria tenella PKG
Eimeria tenella [4] = assay: Antiparasitic activity against Eimeria tenella in chicken at 50 ppm in feed assessed as percent reduction in oocyst; assay type: functional; parameters: scale not given: the % may be the effect or the level left
Eimeria acervulina [5] = assay: Antiparasitic activity against Eimeria acervulina in chicken at 50 ppm in feed assessed as percent reduction in oocyst; assay type: functional; parameters: scale not given: the % may be the effect or the level left

cGMP-dependent protein kinase, sequence (Q8MMZ8 whole entry): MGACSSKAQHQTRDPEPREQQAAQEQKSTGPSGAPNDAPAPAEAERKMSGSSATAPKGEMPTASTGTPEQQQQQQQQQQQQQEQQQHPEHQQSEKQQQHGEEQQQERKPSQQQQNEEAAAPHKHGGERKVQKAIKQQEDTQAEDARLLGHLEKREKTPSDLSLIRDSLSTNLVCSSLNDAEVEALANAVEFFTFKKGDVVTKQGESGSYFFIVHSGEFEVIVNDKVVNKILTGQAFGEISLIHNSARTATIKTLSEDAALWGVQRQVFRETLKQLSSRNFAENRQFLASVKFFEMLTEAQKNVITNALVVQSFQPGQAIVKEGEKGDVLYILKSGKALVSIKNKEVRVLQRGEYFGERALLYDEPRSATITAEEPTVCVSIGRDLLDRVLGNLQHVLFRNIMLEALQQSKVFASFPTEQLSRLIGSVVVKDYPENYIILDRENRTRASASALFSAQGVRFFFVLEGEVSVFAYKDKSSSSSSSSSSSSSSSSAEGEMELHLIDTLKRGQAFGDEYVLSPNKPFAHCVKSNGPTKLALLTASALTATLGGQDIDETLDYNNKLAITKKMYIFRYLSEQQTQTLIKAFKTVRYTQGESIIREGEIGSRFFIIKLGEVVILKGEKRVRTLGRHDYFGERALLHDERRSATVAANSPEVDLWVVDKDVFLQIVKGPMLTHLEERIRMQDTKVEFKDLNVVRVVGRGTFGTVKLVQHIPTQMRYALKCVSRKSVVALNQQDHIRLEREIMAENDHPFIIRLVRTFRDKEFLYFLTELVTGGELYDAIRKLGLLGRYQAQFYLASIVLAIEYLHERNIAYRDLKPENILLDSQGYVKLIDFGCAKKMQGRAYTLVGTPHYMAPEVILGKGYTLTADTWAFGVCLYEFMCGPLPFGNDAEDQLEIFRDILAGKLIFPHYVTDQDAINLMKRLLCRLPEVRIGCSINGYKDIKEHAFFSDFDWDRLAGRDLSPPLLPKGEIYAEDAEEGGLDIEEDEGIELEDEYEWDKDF

IC50 [3] [nM]	SMILES	Activity (Eimeria tenella [1])	Activity (Eimeria acervulina [2])	Activity (Eimeria tenella [4]) [%]	Activity (Eimeria acervulina [5]) [%]
0.47	C[C@H](Nc1nccc(-c2c(-c3ccc(F)cc3)nc3cc(CN(C)C)ccn23)n1)c1ccccc1	>=80%	<50%	–	–
0.32	C[C@@H](Nc1nccc(-c2c(-c3ccc(F)cc3)nc3cc(CN(C)C)ccn23)n1)c1ccccc1	>=80%	>=80%	–	–
0.27	CN(C)Cc1ccn2c(-c3ccnc(OCc4ccccc4)n3)c(-c3ccc(F)cc3)nc2c1	–	–	<50	<50
3	CN(C)Cc1ccn2c(-c3ccnc(N(C)Cc4ccccc4)n3)c(-c3ccc(F)cc3)nc2c1	<50%	50%	–	–
